Assay results: PubChem BioAssay (NCI)
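Briefly, cells in 96-well plates were exposed to five compound concentrations for 48 h, and endpoints were estimated by linear interpolation. TGI: concentration producing complete growth inhibition.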

Assays:
Test in all cases: NCI anticancer screen, dose series, 48 h
HS 578T breast = system: HS 578T breast
MDA-MB-435 = system: MDA-MB-435
SNB-19 CNS = system: SNB-19 CNS
HOP-62 NSCLC = system: HOP-62 NSCLC
OVCAR-4 ovarian = system: OVCAR-4 ovarian
K-562 leukemia = system: K-562 leukemia
BT-549 breast = system: BT-549 breast
ACHN renal = system: ACHN renal
RPMI-8226 leukemia = system: RPMI-8226 leukemia
OVCAR-3 ovarian = system: OVCAR-3 ovarian
NCI/ADR-RES ovarian = system: NCI/ADR-RES ovarian
MDA-MB-231 breast = system: MDA-MB-231 breast
HL-60(TB) leukemia = system: HL-60(TB) leukemia
KM12 colon = system: KM12 colon
HCT-15 colon = system: HCT-15 colon
TK-10 renal = system: TK-10 renal
T-47D breast = system: T-47D breast
EKVX NSCLC = system: EKVX NSCLC
HCC-2998 colon = system: HCC-2998 colon
MALME-3M melanoma = system: MALME-3M melanoma

Compound | TGI (HS 578T breast) [µM] | TGI (MDA-MB-435) [µM] | TGI (SNB-19 CNS) [µM] | TGI (HOP-62 NSCLC) [µM] | TGI (OVCAR-4 ovarian) [µM] | TGI (K-562 leukemia) [µM] | TGI (BT-549 breast) [µM] | TGI (ACHN renal) [µM] | TGI (RPMI-8226 leukemia) [µM] | TGI (OVCAR-3 ovarian) [µM] | TGI (NCI/ADR-RES ovarian) [µM] | TGI (MDA-MB-231 breast) [µM] | TGI (HL-60(TB) leukemia) [µM] | TGI (KM12 colon) [µM] | TGI (HCT-15 colon) [µM] | TGI (TK-10 renal) [µM] | TGI (T-47D breast) [µM] | TGI (EKVX NSCLC) [µM] | TGI (HCC-2998 colon) [µM] | TGI (MALME-3M melanoma) [µM]
COc1ccc(N=Nc2c(C)c(C#N)c(=S)n(C3OC(CO)C(O)C(O)C3O)c2C)cc1 (stereo unspecified) | > 100 | > 100 | > 100 | > 100 | > 100 | > 100 | > 100 | > 100 | > 100 | > 100 | > 100 | > 100 | > 100 | > 100 | > 100 | > 100 | 79.8 |  |  | 
Clc1ccc(-c2ccc(-c3nnc(COc4ccc(OCc5nnc(-c6ccc(-c7ccc(Cl)cc7Cl)o6)o5)c(Cl)c4)o3)o2)c(Cl)c1 | > 100 | > 100 | > 100 | > 100 | > 100 | > 100 | > 100 | > 100 | > 100 | > 100 | > 100 | > 100 | > 100 | > 100 | > 100 | > 100 | > 100 | > 100 | > 100 | 
NC(Cc1ccc(S(=O)(=O)O)cc1)C(=O)NC(Cc1ccc(S(=O)(=O)O)cc1)C(=O)NC(Cc1ccc(S(=O)(=O)O)cc1)C(=O)O (stereo unspecified) | > 100 | > 100 |  | > 100 | > 100 | > 100 | > 100 | > 100 | > 100 | > 100 | > 100 | > 100 | > 100 | > 100 | > 100 | > 100 | > 100 | > 100 | > 100 | > 100
CCOC(=O)c1nc2ccccc2nc1Oc1cc(OC)c(OC)c(OC)c1 | > 100 | > 100 | > 100 | > 100 | > 100 |  | > 100 | > 100 | > 100 | > 100 | > 100 | > 100 | > 100 | > 100 | > 100 | > 100 | > 100 | > 100 | > 100 | > 100
O=C(CC(=O)N1N=C(N(c2ccccc2)c2ccccc2)CC1c1ccccc1)Nc1ccc(Cl)cc1 (stereo unspecified) | > 100 | > 100 | > 100 | > 100 | > 100 | > 100 | > 100 | > 100 | > 100 | > 100 | > 100 | > 100 | > 100 | > 100 | > 100 | > 100 | > 100 | > 100 | > 100 | 
O=[N+]([O-])/C(C(Cl)=C(Cl)Cl)=C(\Nc1ccccc1)n1nnc2ccccc21 | 38.7 | 86.5 | > 100 | 93.6 | 35 | > 100 | 70.2 | > 100 | 93 | > 100 | > 100 | > 100 |  | 48 | > 100 |  | > 100 | > 100 | > 100 | > 100
